Reference: patent US20250099482A1, “TIP60 NEURO-EPIGENETIC MODULATORS” (Drexel University, priority 2023, published 2025)
Entries after “also recorded” stand apart in the source; their conditions may differ. Each block holds one compound with its values, some of them ahead of it.

What was measured:
[1] = test system: Drosophila Tip60 knockdown model; test: In vivo larval locomotor speed assay in Tip60-RNAi knockdown model; conditions: Tip60-RNAi larvae, compound in fly food, vs DMSO vehicle; for rescue of locomotor ability (larval speed): 10 nM to 100 μM
[2] = biological target: T1, Tip60 (Homo sapiens, UniProt Q92993); test: In vitro histone acetylation activity assay (Tip60); format: biochemical; conditions: for effect on Tip60's HAT activity (Histone H4 acetylation, fluorescence): 20 μM compound, vs Tip60+DMSO
T1 construct: purchased Active Motif 81975
T1 sequence (Q92993 whole entry): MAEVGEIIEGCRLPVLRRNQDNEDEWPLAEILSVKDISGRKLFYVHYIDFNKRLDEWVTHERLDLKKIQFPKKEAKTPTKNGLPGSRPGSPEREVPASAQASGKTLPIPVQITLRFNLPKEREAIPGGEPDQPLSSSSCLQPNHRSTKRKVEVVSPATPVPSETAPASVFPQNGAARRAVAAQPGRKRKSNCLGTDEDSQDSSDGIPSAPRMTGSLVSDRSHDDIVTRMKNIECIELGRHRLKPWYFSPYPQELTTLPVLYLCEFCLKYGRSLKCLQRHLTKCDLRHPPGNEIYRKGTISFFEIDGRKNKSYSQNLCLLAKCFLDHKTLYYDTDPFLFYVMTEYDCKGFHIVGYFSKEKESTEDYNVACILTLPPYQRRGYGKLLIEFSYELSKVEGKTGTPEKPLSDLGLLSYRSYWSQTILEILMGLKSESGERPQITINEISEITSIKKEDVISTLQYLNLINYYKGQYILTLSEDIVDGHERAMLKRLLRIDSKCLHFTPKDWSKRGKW
Method: HAT assays were performed according to manufacturer's instructions in HAT Assay Kit (Active Motif 56100). Briefly, 375 ng Tip60 protein (Active motif: 81975) was incubated with 50 μM Histone H4 peptide, 50 μM Acetyl-CoA and indicated drug concentrations for 30 minutes at room temperature. After stopping the reaction and developing free sulfhydryl groups, […] was recorded at excitation 360-390 nm and emission 460-490 nm using Glomax fluorescence microplate reader. Specific enzyme activity (pmol/min/μg) was calculated by 1. Subtracting background fluorescence from that of assay samples to obtain arbitrary fluorescence units (AFU); and (2) Dividing the difference by the incubation time to obtain AFU/minute. 3. Dividing the AFU/minute by the slope of standard curve in AFU/pmol to obtain the rate in pmol/minute. 4. Dividing pmol/min by the amount of enzyme used to obtain final readings in pmol/minute/μg.

[3] = biological target: T2, GST-Tip60 protein (Homo sapiens, UniProt Q92993); test: In vitro surface plasma resonance (SPR) Tip60-compound binding; conditions: for Corrected Response: DMSO corrected
T2 construct: purchased Abcam ab2686960
T2 sequence (Q92993 whole entry): as above
Method: SPR protein-compound binding interactions were analyzed on Biacore 3000 biosensor (Global Cytiva Lifesciences) at 25° C. PBS-P (10 mM Phosphate, 150 mM NaCl, pH 7.4, 0.005% P-20) was used as the running buffer and a HAT-optimized binding buffer (50 mM HEPES, pH 7.4, 500 mM NaCl, 0.05% [v/v] Tween 20, 5 mM DTT, 10% [w/v] glycerol, 2% [v/v] DMSO) was used. A CM5 sensor chip was docked and derivatized by amine coupling to capture anti-GST antibody using freshly prepared 1:1 50 mM NHS (N-hydroxysuccinamide): 200 mM EDC (1-ethyl-3-(3-(dimethylamino) propyl) carbodiimide) followed by immobilization of GST-Tip60 protein (Abcam: ab2686960). Direct binding was determined by injecting ligands in duplicates at concentrations spanning 0.0078 μM to 50 μM with running buffer injections in between. DMSO corrections were performed as described previously. The corrected responses were transformed into % bound sites and plotted against the compound concentration. The concentration of Tip60 on the surface was estimated using [Tip60]=response (captured RU)/100*MW. To plot the % bound isotherm as a function of concentration, it is assumed that binding is 1:1 and the following equation is used: % A bound to B is 100AB/Bt=[Kd+At+Bt-SQRT((Kd+At+Bt)2−4*At*Bt)]/(2*Bt) where A=C and B=Tip60.

[4] = test system: Drosophila Tip60 knockdown model; test: Larval line crossing / reaching the wall assay in Tip60-RNAi knockdown model; format: in vivo; conditions: 3rd instar Tip60-RNAi larvae, compound in fly food
[5] = test system: Drosophila Alzheimer's disease model (APP); test: Larval line crossing assay in APP Alzheimer's disease model; format: in vivo; conditions: 3rd instar APP larvae, compound in fly food, range of concentrations

Structure (SMILES): CCOc1ccccc1C(=O)Nc1ccc(Cl)c(C(F)(F)F)c1 [CTB, N-(4-chloro-3-(trifluoromethyl)phenyl)-2-ethoxybenzamide]
rescue of locomotor ability (larval speed) [1]: significant rescue for locomotor ability
effect on Tip60's HAT activity ([2]; CTB, low micromolar concentrations): directly enhance Tip60's HAT activity
% Bound sites ([3]; 0.0078 μM): 0.05241%
Subtracted response ([3]; 0.0078 μM): 8.34
Corrected Response ([3]; 0.0078 μM): 0.1326
% Bound sites ([3]; 0.023 μM): 0.04999%
Subtracted response ([3]; 0.023 μM): 7.955
Corrected Response ([3]; 0.023 μM): 0.1265
% Bound sites ([3]; 0.07 μM): 0.04921%
Subtracted response ([3]; 0.07 μM): 7.83
Corrected Response ([3]; 0.07 μM): 0.1245
% Bound sites ([3]; 0.21 μM): 0.04955%
Subtracted response ([3]; 0.21 μM): 7.885
Corrected Response ([3]; 0.21 μM): 0.1254
% Bound sites ([3]; 0.63 μM): 0.0526%
Subtracted response ([3]; 0.63 μM): 8.37
Corrected Response ([3]; 0.63 μM): 0.1331
% Bound sites ([3]; 1.85 μM): 0.05923%
Subtracted response ([3]; 1.85 μM): 9.425
Corrected Response ([3]; 1.85 μM): 0.1499
% Bound sites ([3]; 5.56 μM): 0.07928%
Subtracted response ([3]; 5.56 μM): 12.615
Corrected Response ([3]; 5.56 μM): 0.2006
% Bound sites ([3]; 17 μM): 0.1511%
Subtracted response ([3]; 17 μM): 24.05
Corrected Response ([3]; 17 μM): 0.3824
% Bound sites ([3]; 50 μM): 0.4056%
Subtracted response ([3]; 50 μM): 64.54
Corrected Response ([3]; 50 μM): 1.026
Kd ([3]; SPR, 25° C., read-out: KD (dissociation constant)): 28.6 µM

Subtracted response ([3]; 0.0078 μM): 8.525
Corrected Response ([3]; 0.0078 μM): 0.1381
Subtracted response ([3]; 0.023 μM): 8.62
Corrected Response ([3]; 0.023 μM): 0.1396
Subtracted response ([3]; 0.07 μM): 8.545
Corrected Response ([3]; 0.07 μM): 0.1384
Subtracted response ([3]; 0.21 μM): 8.575
Corrected Response ([3]; 0.21 μM): 0.1389
Subtracted response ([3]; 0.63 μM): 8.99
Corrected Response ([3]; 0.63 μM): 0.1456
Subtracted response ([3]; 1.85 μM): 10.085
Corrected Response ([3]; 1.85 μM): 0.1634
Subtracted response ([3]; 5.56 μM): 13.355
Corrected Response ([3]; 5.56 μM): 0.2164
Subtracted response ([3]; 17 μM): 25.005
Corrected Response ([3]; 17 μM): 0.4051
Subtracted response ([3]; 50 μM): 66.335
Corrected Response ([3]; 50 μM): 1.075
Structure (SMILES): CCCCCCCCCCCCCCCc1cccc(OCC)c1C(=O)Nc1ccc(Cl)c(C(F)(F)F)c1 [CTPB, N-(4-chloro-3-(trifluoromethyl)phenyl)-2-ethoxy-6-pentadecylbenzamide]
rescue of locomotor ability (larval speed) [1]: significant rescue for locomotor ability

Structure (SMILES): CCOc1ccccc1C(=O)Nc1ccc(Cl)c(C(F)(F)F)c1 [Compound C1, N-(4-chloro-3-(trifluoromethyl)phenyl)-2-ethoxybenzamide]
rescue of locomotor defects (larval speed), performance as compared to CTB [1]: low-performing compounds

Structure (SMILES): O=C(Nc1ccc(Cl)c(C(F)(F)F)c1)c1ccccc1OC[C@@H]1CCCO1 [Compound C2, (S)-N-(4-chloro-3-(trifluoromethyl)phenyl)-2-((tetrahydrofuran-2-yl)methoxy)benzamide]
rescue of locomotor defects (larval speed), performance as compared to CTB [1]: highest performers

Structure (SMILES): O=C(Nc1ccc(Cl)c(C(F)(F)F)c1)c1ccccc1OC[C@H]1CCCO1 [Compound C3, (R)-N-(4-chloro-3-(trifluoromethyl)phenyl)-2-((tetrahydrofuran-2-yl)methoxy)benzamide]
rescue of locomotor defects (larval speed), performance as compared to CTB [1]: low-performing compounds

Structure (SMILES): O=C(Nc1ccc(Cl)c(C(F)(F)F)c1)c1ccccc1OCC(=O)N1CCOCC1 [Compound C4, N-(4-chloro-3-(trifluoromethyl)phenyl)-2-(2-morpholino-2-oxoethoxy)benzamide]
rescue of locomotor defects (larval speed), performance as compared to CTB [1]: did not show an effect even at high concentrations

Structure (SMILES): CCOc1cccc(OCCN(C)C)c1C(=O)Nc1ccc(Cl)c(C(F)(F)F)c1 [Compound C5, N-(4-chloro-3-(trifluoromethyl)phenyl)-2-(2-(dimethylamino)ethoxy)-6-ethoxybenzamide]
rescue of locomotor defects (larval speed), performance as compared to CTB [1]: highest performers

Structure (SMILES): CC(C)Oc1ccccc1C(=O)Nc1ccc(Cl)c(C(F)(F)F)c1 [Compound C6, N-(4-chloro-3-(trifluoromethyl)phenyl)-2-isopropoxybenzamide]
rescue of locomotor defects (larval speed), performance as compared to CTB [1]: low-performing compounds

Structure (SMILES): O=C(Nc1ccc(Cl)c(C(F)(F)F)c1)c1ccccc1OC[C@@H]1CCCS1(=O)=O [Compound C7, (S)-N-(4-chloro-3-(trifluoromethyl)phenyl)-2-((1,1-dioxidotetrahydrothiophen-2-yl)methoxy)benzamide]
rescue of locomotor defects (larval speed), performance as compared to CTB [1]: low-performing compounds

Structure (SMILES): O=C(Nc1ccc(Cl)c(C(F)(F)F)c1)c1ccccc1OC[C@H]1CCCS1(=O)=O [Compound C8, (R)-N-(4-chloro-3-(trifluoromethyl)phenyl)-2-((1,1-dioxidotetrahydrothiophen-2-yl)methoxy)benzamide]
rescue of locomotor defects (larval speed), performance as compared to CTB [1]: highest performers

Structure (SMILES): CCOCC[C@H](O)COc1ccccc1C(=O)Nc1ccc(Cl)c(C(F)(F)F)c1 [Compound C9, (S)-N-(4-chloro-3-(trifluoromethyl)phenyl)-2-(4-ethoxy-2-hydroxybutoxy)benzamide]
rescue of locomotor defects (larval speed), performance as compared to CTB [1]: low-performing compounds

Structure (SMILES): CCOCC[C@@H](O)COc1ccccc1C(=O)Nc1ccc(Cl)c(C(F)(F)F)c1 [Compound C10, (R)-N-(4-chloro-3-(trifluoromethyl)phenyl)-2-(4-ethoxy-2-hydroxybutoxy)benzamide]
rescue of locomotor defects (larval speed), performance as compared to CTB [1]: low-performing compounds

Structure (SMILES): CCOc1ccccc1C(=O)Nc1cnn(Cc2ccc(C)cc2)c1 [Compound P6, 2-ethoxy-N-(1-(4-methylbenzyl)-1H-pyrazol-4-yl)benzamide]
rescue of Tip60 knockdown induced locomotion deficits (line crossing in 30 seconds) [4]: rescue locomotor speed defect; also recorded: inconsistent rescue results
effect on Tip60's HAT activity (Histone H4 acetylation, fluorescence) [2]: enhanced Tip60's HAT activity; also recorded: highest level of Tip60 HAT activation
rescue of AD associated locomotion defects (line crossing, reaching wall) [5]: high rescue overall, its action was inconsistent

effect on Tip60's HAT activity (Histone H4 acetylation, fluorescence) [2]: enhanced Tip60's HAT activity
Structure (SMILES): COc1ccc(NCc2c(OCc3ccc(F)cc3)ccc3ccccc23)cc1Cl [Compound P9, 3-chloro-N-((2-((4-fluorobenzyl)oxy)naphthalen-1-yl)methyl)-4-methoxyaniline]

Structure (SMILES): O=C(NCc1ccccc1Cn1cncn1)c1cn(Cc2ccccc2)c2ccccc12 [Compound P11, N-(2-((1H-1,2,4-triazol-1-yl)methyl)benzyl)-1-benzyl-1H-indole-3-carboxamide]
effect on Tip60's HAT activity (Histone H4 acetylation, fluorescence) [2]: enhanced Tip60's HAT activity

Subtracted response ([3]; 0.0078 μM): 8.58
Corrected Response ([3]; 0.0078 μM): 0.127
Subtracted response ([3]; 0.023 μM): 7.78
Corrected Response ([3]; 0.023 μM): 0.1151
Subtracted response ([3]; 0.07 μM): 7.42
Corrected Response ([3]; 0.07 μM): 0.1098
Subtracted response ([3]; 0.21 μM): 7.24
Corrected Response ([3]; 0.21 μM): 0.1072
Subtracted response ([3]; 0.63 μM): 7.51
Corrected Response ([3]; 0.63 μM): 0.1111
Subtracted response ([3]; 1.85 μM): 8.17
Corrected Response ([3]; 1.85 μM): 0.1209
Subtracted response ([3]; 5.56 μM): 11.34
Corrected Response ([3]; 5.56 μM): 0.1678
Subtracted response ([3]; 17 μM): 22.255
Corrected Response ([3]; 17 μM): 0.3294
Subtracted response ([3]; 50 μM): 61.705
Corrected Response ([3]; 50 μM): 0.9132
Structure (SMILES): Cc1cc(-c2ccccc2)cc(C(=O)NNS(=O)(=O)c2ccccc2)c1F [WM8014, N′-(4-fluoro-5-methyl-[1,1′-bipheny1]-3-carbonyl)benzenesulfonohydrazide]
